pEC50, pKi: −log10 of the molar value.
Experiments:
[1] = molecular target: T1, porcine cortical p5-HT1a serotonin receptor (Sus scrofa, UniProt A0A4X1UTF5); assay: Receptor binding assay, [3H]WAY100635 competition, porcine cortical membranes; conditions: for pKi: means of 2-8 individual experiments each done as triplicate; for selectivity ratio p5-HT1a: reference receptor of the ratio (=1)
T1 construct: membrane homogenates prepared from porcine striatal or cortical tissue; from tissue; host or cells: porcine cortex
T1 sequence (A0A4X1UTF5 1-422): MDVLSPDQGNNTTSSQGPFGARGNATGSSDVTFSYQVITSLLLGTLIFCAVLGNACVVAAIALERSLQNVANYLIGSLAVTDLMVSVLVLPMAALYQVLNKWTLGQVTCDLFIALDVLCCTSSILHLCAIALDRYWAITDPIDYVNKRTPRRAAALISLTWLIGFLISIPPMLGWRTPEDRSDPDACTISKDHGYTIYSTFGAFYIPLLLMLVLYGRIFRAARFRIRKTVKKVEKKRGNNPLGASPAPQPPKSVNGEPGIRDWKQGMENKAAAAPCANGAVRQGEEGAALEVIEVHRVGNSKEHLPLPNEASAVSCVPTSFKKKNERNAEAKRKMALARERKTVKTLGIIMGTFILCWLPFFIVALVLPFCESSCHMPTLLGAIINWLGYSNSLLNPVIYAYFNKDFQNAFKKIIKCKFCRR

[2] = molecular target: T2, porcine cortical p5-HT2 serotonin receptor (Sus scrofa, UniProt P50129); assay: Receptor binding assay, [3H]ketanserin competition, porcine cortical membranes; conditions: for pKi: means of 2-8 individual experiments each done as triplicate; for selectivity ratio p5-HT2: vs p5-HT1a
T2 construct: membrane homogenates prepared from porcine striatal or cortical tissue; from tissue; host or cells: porcine cortex

[3] = molecular target: T3, porcine striatal pD1 dopamine receptor (Sus scrofa, UniProt P50130); assay: Receptor binding assay, [3H]SCH 23390 competition, porcine striatal membranes; conditions: for pKi: means of 2-8 individual experiments each done as triplicate; for selectivity ratio pD1: vs p5-HT1a
T3 construct: membrane homogenates prepared from porcine striatal or cortical tissue; from tissue; host or cells: porcine striatum

[4] = molecular target: T4, human dopamine receptor subtype hD2long (Homo sapiens, UniProt P14416); assay: Receptor binding assay, [3H]spiperone competition, CHO cell membranes; conditions: for pKi: means of 2-8 individual experiments each done as triplicate; for selectivity ratio hD2long: vs p5-HT1a
T4 construct: expressed in transfected cells; host or cells: CHO
Experimental: (§1) Receptor binding data were determined when performing competition binding assays with membrane preparations of cloned cells (stably transfected Chinese Hamster Ovary cells (CHO)) expressing the human receptors and the following radioligands: [^3H]spiperone at the human dopamine receptor subtypes hD2long, hD2short, D3, and hD4.4.
(§2) Selectivity ratios were calculated by division of the Ki values of the various compounds at the respective receptors through the Ki values at the 5HT1a receptor.

[5] = molecular target: T5, human dopamine receptor subtype hD2short (Homo sapiens, UniProt P14416); assay: as above; conditions: for pKi: means of 2-8 individual experiments each done as triplicate; for selectivity ratio hD2short: vs p5-HT1a
T5 construct: expressed in transfected cells; host or cells: CHO
Experimental: as §1, §2

[6] = molecular target: T6, human dopamine receptor subtype hD3 (Homo sapiens, UniProt P35462); assay: as above; conditions: for pKi: means of 2-8 individual experiments each done as triplicate; for selectivity ratio hD3: vs p5-HT1a
T6 construct: expressed in transfected cells; host or cells: CHO
Experimental: as §1, §2

[7] = molecular target: T7, human dopamine receptor subtype hD4.4 (Homo sapiens, UniProt P21917); assay: as above; conditions: for pKi: means of 2-8 individual experiments each done as triplicate; for selectivity ratio hD4.4: vs p5-HT1a
T7 construct: expressed in transfected cells; host or cells: CHO
T7 sequence (P21917 1-419): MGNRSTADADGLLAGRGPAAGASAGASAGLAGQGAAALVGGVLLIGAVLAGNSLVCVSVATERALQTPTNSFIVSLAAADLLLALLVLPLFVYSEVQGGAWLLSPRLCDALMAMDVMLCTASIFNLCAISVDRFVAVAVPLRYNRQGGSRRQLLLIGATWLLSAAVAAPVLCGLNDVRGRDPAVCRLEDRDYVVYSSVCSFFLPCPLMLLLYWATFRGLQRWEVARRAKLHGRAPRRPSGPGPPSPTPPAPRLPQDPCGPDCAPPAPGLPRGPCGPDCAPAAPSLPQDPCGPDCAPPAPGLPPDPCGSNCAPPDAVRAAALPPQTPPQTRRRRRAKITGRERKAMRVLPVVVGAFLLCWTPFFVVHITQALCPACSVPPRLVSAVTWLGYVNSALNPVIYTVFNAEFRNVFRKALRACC
Experimental: as §1, with “hD4.4. […].” for “hD4.4.”
as §2

[8] = test system: porcine cortical pα1 adrenergic receptor; assay: Receptor binding assay, [3H]prazosin competition, porcine cortical membranes; conditions: vs p5-HT1a
[9] = molecular target: T8, porcine cortical pα1 adrenergic receptor; assay: as above; conditions: means of 2-8 individual experiments each done as triplicate
T8 construct: Ki pα1; other: means of 2-8 individual experiments each done as triplicate

human 5-HT1a receptor = molecular target: T9, human 5-HT1a receptor (Homo sapiens, UniProt P08908); assay: [35S]GTPγS functional assay; assay type: biochemical
T9 construct: expressed in transfected cells
T9 sequence (P08908 1-422): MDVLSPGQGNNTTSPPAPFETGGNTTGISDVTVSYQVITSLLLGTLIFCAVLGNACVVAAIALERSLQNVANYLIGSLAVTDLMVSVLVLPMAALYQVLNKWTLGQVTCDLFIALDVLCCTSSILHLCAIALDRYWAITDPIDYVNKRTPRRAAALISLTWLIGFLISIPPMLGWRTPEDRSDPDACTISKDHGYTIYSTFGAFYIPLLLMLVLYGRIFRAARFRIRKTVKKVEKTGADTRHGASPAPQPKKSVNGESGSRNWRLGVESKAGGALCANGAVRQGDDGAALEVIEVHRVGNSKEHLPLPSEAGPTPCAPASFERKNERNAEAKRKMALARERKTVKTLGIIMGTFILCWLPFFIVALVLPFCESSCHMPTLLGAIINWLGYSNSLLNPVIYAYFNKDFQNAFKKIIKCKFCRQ
Experimental: Specific binding of [^35S]GTPγS is stimulated by activation of the stably expressed human 5-HT1a receptor in a dose-dependent way by agonists for this GPCR and is determined by measuring the radioactive label of the membrane. Non-linear regression analysis of the resulting dose-response curves yields the EC50 value in [nM] representing the half maximal concentration which is necessary to activate the receptor completely.

T5 sequence (P14416 1-414 isoform P14416-2): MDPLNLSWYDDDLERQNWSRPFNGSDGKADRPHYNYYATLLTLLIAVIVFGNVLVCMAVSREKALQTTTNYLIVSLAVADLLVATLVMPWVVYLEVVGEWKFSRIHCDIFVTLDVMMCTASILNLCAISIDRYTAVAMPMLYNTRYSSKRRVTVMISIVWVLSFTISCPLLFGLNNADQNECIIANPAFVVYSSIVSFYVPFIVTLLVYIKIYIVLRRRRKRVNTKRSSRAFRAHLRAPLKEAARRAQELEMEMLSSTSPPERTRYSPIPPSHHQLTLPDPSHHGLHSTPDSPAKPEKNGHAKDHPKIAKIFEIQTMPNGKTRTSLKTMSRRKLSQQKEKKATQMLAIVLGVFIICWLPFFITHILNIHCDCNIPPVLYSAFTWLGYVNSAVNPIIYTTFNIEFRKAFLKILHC
T4 sequence (P14416 whole entry): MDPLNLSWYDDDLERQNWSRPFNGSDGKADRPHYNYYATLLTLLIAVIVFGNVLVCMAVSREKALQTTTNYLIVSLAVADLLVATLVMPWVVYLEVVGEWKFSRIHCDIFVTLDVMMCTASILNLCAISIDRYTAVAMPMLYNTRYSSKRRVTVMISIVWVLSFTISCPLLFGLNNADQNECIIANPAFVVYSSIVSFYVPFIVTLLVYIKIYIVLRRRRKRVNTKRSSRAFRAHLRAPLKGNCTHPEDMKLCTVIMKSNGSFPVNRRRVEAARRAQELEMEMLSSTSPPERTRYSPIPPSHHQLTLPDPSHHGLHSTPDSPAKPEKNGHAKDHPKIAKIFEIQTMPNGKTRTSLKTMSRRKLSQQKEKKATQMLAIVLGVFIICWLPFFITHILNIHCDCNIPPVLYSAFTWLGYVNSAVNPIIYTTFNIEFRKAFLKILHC
T6 sequence (P35462 whole entry): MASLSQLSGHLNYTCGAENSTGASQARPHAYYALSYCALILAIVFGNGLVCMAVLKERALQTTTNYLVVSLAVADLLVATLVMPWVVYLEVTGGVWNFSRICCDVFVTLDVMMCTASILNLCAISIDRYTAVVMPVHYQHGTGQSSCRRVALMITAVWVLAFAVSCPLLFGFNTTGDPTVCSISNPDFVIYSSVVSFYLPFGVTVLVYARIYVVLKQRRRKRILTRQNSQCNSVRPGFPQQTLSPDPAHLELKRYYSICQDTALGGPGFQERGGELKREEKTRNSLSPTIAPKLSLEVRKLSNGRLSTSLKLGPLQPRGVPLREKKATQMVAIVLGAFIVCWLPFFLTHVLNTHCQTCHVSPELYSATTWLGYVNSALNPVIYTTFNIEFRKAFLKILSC
T2 sequence (P50129 whole entry): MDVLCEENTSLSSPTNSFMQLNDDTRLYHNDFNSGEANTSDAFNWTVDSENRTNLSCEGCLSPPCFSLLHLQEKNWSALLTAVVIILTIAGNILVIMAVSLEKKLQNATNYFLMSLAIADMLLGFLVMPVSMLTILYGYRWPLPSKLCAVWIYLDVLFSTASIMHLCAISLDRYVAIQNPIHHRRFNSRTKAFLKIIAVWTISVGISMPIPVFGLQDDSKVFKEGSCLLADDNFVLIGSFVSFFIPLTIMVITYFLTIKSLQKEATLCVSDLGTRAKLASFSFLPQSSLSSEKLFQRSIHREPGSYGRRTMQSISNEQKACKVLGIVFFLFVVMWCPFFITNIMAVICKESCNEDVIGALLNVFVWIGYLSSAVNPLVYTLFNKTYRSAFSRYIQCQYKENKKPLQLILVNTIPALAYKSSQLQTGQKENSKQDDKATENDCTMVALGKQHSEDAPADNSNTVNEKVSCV
T3 sequence (P50130 whole entry): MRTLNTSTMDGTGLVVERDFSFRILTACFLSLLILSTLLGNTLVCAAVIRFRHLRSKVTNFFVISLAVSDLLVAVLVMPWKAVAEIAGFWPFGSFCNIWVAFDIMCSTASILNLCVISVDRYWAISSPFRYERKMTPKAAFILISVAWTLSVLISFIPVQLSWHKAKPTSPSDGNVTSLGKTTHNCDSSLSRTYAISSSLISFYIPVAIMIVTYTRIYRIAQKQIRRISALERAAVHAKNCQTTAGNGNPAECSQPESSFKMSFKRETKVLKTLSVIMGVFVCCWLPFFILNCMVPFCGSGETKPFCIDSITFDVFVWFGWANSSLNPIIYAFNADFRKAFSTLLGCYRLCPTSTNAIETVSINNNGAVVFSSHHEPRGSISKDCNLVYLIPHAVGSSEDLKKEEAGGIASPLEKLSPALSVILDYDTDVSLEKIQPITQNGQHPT

Row | pEC50 (human 5-HT1a receptor; mean values of 2-8 individual experiments) | Emax (human 5-HT1a receptor; read-out: intrinsic activity [% rel. to serotonin]) | Compound | pKi [1] | selectivity ratio p5-HT1a [1] | pKi [2] | selectivity ratio p5-HT2 [2] | pKi [3] | selectivity ratio pD1 [3] | pKi [4] | selectivity ratio hD2long [4] | pKi [5] | selectivity ratio hD2short [5] | pKi [6] | selectivity ratio hD3 [6] | pKi [7] | selectivity ratio hD4.4 [7] | selectivity ratio pα1 [8] | pKi [9]
1 | – | – | CCCN(CCc1cccs1)[C@H]1CCc2cccc(O)c2C1 [Compound 1b, (S)—N-(8-Hydroxytetralin-2-yl)-N-propyl-N-[2-(2-thienyl)ethyl]amine] | 8.74 | 1 | 5.26 | 3 100 | 5.27 | 3 000 | 6.28 | 290 | 6.54 | 160 | 7.31 | 26 | 6.16 | 380 | 110 | 6.70
2 | 8.20 | 91% | CCCN(CCc1cccs1)C1CCc2cccc(OC)c2C1 (stereo not shown) [Compound 2, N-(8-Methoxytetralin-2-yl)-N-propyl-N-[2-(2-thienyl)ethyl]amine] | 8.54 | – | 4.92 | – | 5.17 | – | 6.80 | – | 6.41 | – | 7.24 | – | 6.41 | – | – | 6.70
3 | – | – | CCCN(CCc1cccs1)[C@H]1CCc2cccc(OC)c2C1 [Compound 2b, (S)—N-(8-Methoxytetralin-2-yl)-N-propyl-N-[2-(2-thienyl)ethyl]amine] | 8.17 | – | 5.41 | – | 5.48 | – | 7.07 | – | 7.24 | – | 7.49 | – | 6.12 | – | – | 6.85
4 | – | – | CCCN(CCc1ccccc1)C1CCc2cccc(O)c2C1 (stereo not shown) [Compound 3, N-(8-Hydroxytetralin-2-yl)-N-(2-phenylethyl)-N-propylamine] | 9.21 | 1 | 5.24 | 9 400 | 5.04 | 15 000 | 6.12 | 1 200 | 6.77 | 270 | 6.72 | 310 | 6.23 | 950 | 230 | 6.85
5 | – | – | CCCN(CCc1ccc(O)cc1)C1CCc2cccc(O)c2C1 (stereo not shown) [Compound 5, N-[2-(4-Hydroxyphenyl)ethyl]-N-(8-hydroxytetralin-2-yl)-N-propylamine] | 8.96 | 1 | 5.18 | 6 000 | 5.21 | 5 600 | 6.47 | 310 | 7.07 | 80 | 7.02 | 86 | 6.24 | 520 | 79 | 7.06
6 | – | – | CCCN(CCc1ccc(OC)cc1)C1CCc2cccc(OC)c2C1 (stereo not shown) [Compound 6, N-[2-(4-Methoxyphenyl)ethyl]-N-(8-methoxytetralin-2-yl)-N-propylamine] | 8.26 | – | 5.31 | – | 5.02 | – | 6.47 | – | 6.59 | – | 6.96 | – | 6.33 | – | – | 6.64
7 | – | – | CCCN(CCc1cc(C)ccc1C)C1CCc2cccc(OC)c2C1 (stereo not shown) [Compound 8, N-(8-Methoxytetralin-2-yl)-N-propyl-N-[2-(2,5-dimethyl)phenylethyl]amine] | 7.62 | – | 5.36 | – | 5.21 | – | 6.52 | – | 6.74 | – | 6.96 | – | 6.03 | – | – | 6.29
8 | – | – | CCCN(CCc1cc2ccc1CCc1ccc(cc1)CC2)C1CCc2cccc(O)c2C1 (stereo not shown) [Compound 13, N-(8-Hydroxytetralin-2-yl)-N-[2-([2.2]paracyclophan-4-yl)ethyl]-N-propylamine] | 7.82 | 1 | 5.68 | 140 | 5.46 | 230 | 6.00 | 66 | 6.19 | 43 | 6.77 | 11 | 7.06 | 5.8 | 62 | 6.03
9 | – | – | CCCN(CCc1cc2ccc1CCc1ccc(cc1)CC2)C1CCc2cccc(OC)c2C1 (stereo not shown) [Compound 14, N-(8-Methoxytetralin-2-yl)-N-propyl-N-[2-([2.2]paracyclophan-4-yl)ethyl]-amine] | 7.30 | 1 | 5.14 | 150 | 5.72 | 38 | 7.32 | 0.96 | 7.46 | 0.70 | 7.48 | 0.66 | 6.96 | 2.2 | 5.6 | 6.55
10 | – | – | CCCN(CCC)C1CCc2cccc(O)c2C1 (stereo not drawn) [R-(+)-8-OH-DPAT, reference compound] | 8.92 | – | 5.68 | – | 5.48 | – | – | – | – | – | – | – | 6.68 | – | – | 6.60
11 | – | – | N-(2-Adamantylethyl)-N-(8-methoxytetralin-2-yl)-N-propylamine [Compound 10] | 7.19 | 1 | 4.85 | 220 | 4.92 | 180 | 6.42 | 5.8 | 6.72 | 2.9 | 6.59 | 4.0 | 5.74 | 28 | 75 | 5.31
12 | – | – | N-(2-Ferrocenylethyl)-N-(8-hydroxytetralin-2-yl)-N-propylamine [Compound 11] | 9.49 | – | 6.03 | – | 5.51 | – | 7.47 | – | 7.80 | – | 7.28 | – | 8.13 | – | – | 6.77
13 | – | – | N-(2-Ferrocenylethyl)-N-(8-methoxytetralin-2-yl)-N-propylamine [Compound 12] | 8.74 | – | 5.66 | – | 5.59 | – | 7.42 | – | 7.77 | – | 7.96 | – | 8.46 | – | – | 7.04

From patent US8586603B2, “Aminotetraline derivatives” (priority 2009, dated 2013)
